Columns and labels:
Assay type in all cases: biochemical
[1] = molecular target: T1, Aurora A (Homo sapiens, UniProt O14965); test: Aurora A enzyme inhibition (time-resolved fluorescence, STK substrate-2); details: 1 mM ATP
T1 sequence (O14965 1-403): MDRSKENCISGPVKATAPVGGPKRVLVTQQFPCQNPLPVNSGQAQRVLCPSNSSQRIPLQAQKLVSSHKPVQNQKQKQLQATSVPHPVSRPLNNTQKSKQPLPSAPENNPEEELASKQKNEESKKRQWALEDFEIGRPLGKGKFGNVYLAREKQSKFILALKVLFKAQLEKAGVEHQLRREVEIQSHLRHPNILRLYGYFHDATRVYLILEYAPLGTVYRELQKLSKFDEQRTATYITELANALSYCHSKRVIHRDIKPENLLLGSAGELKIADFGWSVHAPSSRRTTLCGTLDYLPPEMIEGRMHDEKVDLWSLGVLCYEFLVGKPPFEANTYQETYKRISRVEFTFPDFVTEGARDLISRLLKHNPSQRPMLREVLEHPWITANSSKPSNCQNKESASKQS
Protocol: To determine Aurora A and C activity of representative compounds of the invention, Active Aurora A or C enzyme was incubated in wells of a 384 well plate with biotinylated STK substrate-2 (Upstate), 1 mM ATP, and various concentrations of inhibitors in a Hepes buffer, pH 7.4 containing MgCl2, sodium othrovanadate, and Triton X-100. After 1 hour, the reaction was stopped with EDTA and anti-phospho-STK antibody Europium Cryptate (Upstate) and SA-XL665 (Upstate) were added to detect the phosphopeptide. The amount of phosphorylation was determined by the time-resolved fluorescence ratio of signals at 665 nm and 615 nm. The IC50s were calculated by an exponential fit of the inhibition values with the inhibitor concentrations using Assay Explorer software.

[2] = molecular target: KDR (Homo sapiens, UniProt P35968); test: KDR HTRF in vitro kinase assay; design: purified enzyme (His6-KDR 789-1354, MW 63 kD); His6 (N); details: 1 mM ATP; read-out: KDR enzyme inhibition data (Ki)
KDR, sequence (P35968 789-1354): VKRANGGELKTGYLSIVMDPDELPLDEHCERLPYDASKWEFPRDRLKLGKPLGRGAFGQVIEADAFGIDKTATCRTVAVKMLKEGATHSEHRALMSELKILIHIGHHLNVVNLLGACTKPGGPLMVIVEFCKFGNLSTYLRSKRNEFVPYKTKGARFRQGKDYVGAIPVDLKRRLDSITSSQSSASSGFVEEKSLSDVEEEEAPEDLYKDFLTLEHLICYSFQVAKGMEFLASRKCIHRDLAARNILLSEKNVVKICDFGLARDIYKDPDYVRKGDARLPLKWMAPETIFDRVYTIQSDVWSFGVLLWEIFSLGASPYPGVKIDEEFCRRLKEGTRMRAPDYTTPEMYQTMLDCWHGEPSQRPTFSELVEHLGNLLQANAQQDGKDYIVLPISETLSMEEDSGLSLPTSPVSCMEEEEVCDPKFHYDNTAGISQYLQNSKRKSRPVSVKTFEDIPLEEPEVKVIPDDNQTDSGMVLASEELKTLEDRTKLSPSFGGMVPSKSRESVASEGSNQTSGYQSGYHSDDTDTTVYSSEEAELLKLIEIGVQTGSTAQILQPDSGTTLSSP
Protocol: To determine the activity of the various kinases, a homogenous time-resolved fluorescence (HTRF) in vitro kinase assay was used. (Mathis, G., HTRF® Technology. J Biomol Screen, 1999. 4(6): p. 309-314; Alfred J. Kolb, Paul V. Kaplita, David J. Hayes, Young-Whan Park, Christine Pernell, John S. Major and Gerard Mathis, Drug Discovery Today, 1998, 3, 333-342.)
For example for KDR, 7 ng/well of purified enzyme (His6-KDR 789-1354, MW 63 kD) was mixed with 0.5 μM N-biotinylated substrate (Biotin-Ahx-AEEEYFFLA-amide (SEQ. ID. 1)), various concentrations of inhibitor in reaction buffer (50 mM HEPES, pH 7.1, 10 mM MgCl2, 2 mM MnCl2, 0.1% BSA and 1 mM DTT, 40 L final volume), ATP (1 mM final conc.) in a black 384-well plate. After 60 minutes incubation at room temperature, the reaction was quenched by addition of a buffered EDTA solution (final approximate concentrations: 30 mM EDTA, 0.1% BSA, 0.1% Triton X-100 and 0.24M KF) and a solution of revelation agents (to give 0.084 ng/well streptavidin-XL-665 (Cis-Bio) and 6.5 ng/well antiphsophotyrosine mAb PT66-K Europium kryptate) was added to the reaction mixture. The quenched reaction was allowed to stand at room temperature for 3 hours and was then read in a time-resolved fluorescence detector (InVision, Perkin-Elmer) at 620 nm and 665 nm sequentially with excitation. The ratio between the signal of 620 nm and 665 nm was used in the calculation of the IC50.

[3] = molecular target: T2, Aurora B (Homo sapiens, UniProt Q96GD4); test: Aurora B enzyme inhibition (time-resolved fluorescence, histone H3 peptide); details: 1 mM ATP
T2 construct: Active Aurora B enzyme (recombinant residues 1-344)
T2 sequence (Q96GD4 whole entry, the tested form may be a part): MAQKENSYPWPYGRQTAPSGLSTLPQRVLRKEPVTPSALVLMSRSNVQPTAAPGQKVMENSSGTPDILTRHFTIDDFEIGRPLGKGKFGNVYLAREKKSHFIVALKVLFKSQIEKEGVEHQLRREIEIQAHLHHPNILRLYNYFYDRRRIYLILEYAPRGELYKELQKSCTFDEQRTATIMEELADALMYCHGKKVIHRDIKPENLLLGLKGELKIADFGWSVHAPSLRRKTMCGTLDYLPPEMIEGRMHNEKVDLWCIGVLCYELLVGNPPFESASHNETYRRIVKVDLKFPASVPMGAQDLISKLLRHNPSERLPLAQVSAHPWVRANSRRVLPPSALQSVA
T2 sequence (Q9NQS7 826-918 partner limits assumed): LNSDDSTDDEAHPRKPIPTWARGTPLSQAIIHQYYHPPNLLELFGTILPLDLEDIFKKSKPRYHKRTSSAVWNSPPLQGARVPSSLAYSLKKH
Protocol: To determine Aurora B activity of representative compounds of the invention, Active Aurora B enzyme (recombinant residues 1-344) and INCENP (recombinant GST fusion protein (Upstate)) were incubated in wells of a 384 well plate with biotinylated histone H3 peptide residues 1-21 (Upstate), 1 mM ATP, and various concentrations of inhibitors in a HEPES buffer, pH 7.4 containing MgCl2, sodium othrovanadate, and Triton X-100. After 1 hour, the reaction was stopped with EDTA and anti-phospho-histone H3 Europium Cryptate (Cis-Bio) and SA-APC (Phycolink, Prozyme) were added to detect the phosphopeptide. The amount of phosphorylation was determined by the time-resolved fluorescence ratio of signals at 665 nm and 615 nm. The IC50's were calculated by an exponential fit of the inhibition values with the inhibitor concentrations using Assay Explorer software.

Measured: Ki

CC(C)OC(=O)Cn1cc(Nc2ncc(Br)c(N[C@@H]3[C@H](C(N)=O)[C@H]4C=C[C@@H]3C4)n2)cn1.CC(C)OC(=O)Cn1cc(Nc2ncc(Br)c(N[C@H]3[C@@H](C(N)=O)[C@@H]4C=C[C@H]3C4)n2)cn1 (mixture of isomers) [Example 55, isopropyl{4-[(4-{[(1S,2S,3R,4R)-3-(aminocarbonyl)bicyclo[2.2.1]hept-5-ene-2-yl]amino}-5-bromopyrimidin-2-yl)amino]-1H-pyrazol-1-yl}acetate and isopropyl{4-[(4-{[(1R,2R,3S,4S)-3-(aminocarbonyl)bicyclo[2.2.1]hept-5-ene-2-yl]amino}-5-bromopyrimidin-2-yl)amino]-1H-pyrazol-1-yl}acetate]
< 100 nM: all assays above

Cn1cc(Nc2ncc(Cl)c(N[C@@H]3[C@H]4CC[C@H](C4)[C@@H]3C(N)=O)n2)cn1.Cn1cc(Nc2ncc(Cl)c(N[C@H]3[C@@H]4CC[C@@H](C4)[C@H]3C(N)=O)n2)cn1 (mixture of isomers) [Example 56, (1R,2S,3R,4S)-3-({5-chloro-2-[(1-methyl-1H-pyrazol-4-yl)amino]pyrimidin-4-yl}amino)bicyclo[2.2.1]heptane-2-carboxamide and (1S,2R,3S,4R)-3-({5-chloro-2-[(1-methyl-1H-pyrazol-4-yl)amino]pyrimidin-4-yl}amino)bicyclo[2.2.1]heptane-2-carboxamide]
< 100 nM: all assays above

CCn1cc(Nc2ncc(Cl)c(N[C@@H]3[C@H]4CC[C@H](C4)[C@@H]3C(N)=O)n2)cn1.CCn1cc(Nc2ncc(Cl)c(N[C@H]3[C@@H]4CC[C@@H](C4)[C@H]3C(N)=O)n2)cn1 (mixture of isomers) [Example 57, (1R,2S,3R,4S)-3-({5-chloro-2-[(1-ethyl-1H-pyrazol-4-yl)amino]pyrimidin-4-yl}amino)bicyclo[2.2.1]heptane-2-carboxamide and (1S,2R,3S,4R)-3-({5-chloro-2-[(1-ethyl-1H-pyrazol-4-yl)amino]pyrimidin-4-yl}amino)bicyclo[2.2.1]heptane-2-carboxamide]
< 100 nM: all assays above

CN(C)C(=O)Cn1cc(Nc2ncc(Cl)c(N[C@@H]3[C@H]4CC[C@H](C4)[C@@H]3C(N)=O)n2)cn1.CN(C)C(=O)Cn1cc(Nc2ncc(Cl)c(N[C@H]3[C@@H]4CC[C@@H](C4)[C@H]3C(N)=O)n2)cn1 (mixture of isomers) [Example 58, (1R,2S,3R,4S)-3-{[5-chloro-2-({1-[2-(dimethylamino)-2-oxoethyl]-1H-pyrazol-4-yl}amino)pyrimidin-4-yl]amino}bicyclo[2.2.1]heptane-2-carboxamide and (1S,2R,3S,4R)-3-{[5-chloro-2-({1-[2-(dimethylamino)-2-oxoethyl]-1H-pyrazol-4-yl}amino)pyrimidin-4-yl]amino}bicyclo[2.2.1]heptane-2-carboxamide]
< 100 nM: all assays above

NC(=O)[C@@H]1[C@H]2CC[C@H](C2)[C@@H]1Nc1nc(Nc2cnn(CCO)c2)ncc1Cl.NC(=O)[C@H]1[C@@H]2CC[C@@H](C2)[C@H]1Nc1nc(Nc2cnn(CCO)c2)ncc1Cl (mixture of isomers) [Example 59, (1R,2S,3R,4S)-3-[(5-chloro-2-{[1-(2-hydroxyethyl)-1H-pyrazol-4-yl]amino}pyrimidin-4-yl)amino]bicyclo[2.2.1]heptane-2-carboxamide and (1S,2R,3S,4R)-3-[(5-chloro-2-{[1-(2-hydroxyethyl)-1H-pyrazol-4-yl]amino}pyrimidin-4-yl)amino]bicyclo[2.2.1]heptane-2-carboxamide]
< 100 nM: all assays above

NC(=O)[C@@H]1[C@H]2CC[C@H](C2)[C@@H]1Nc1nc(Nc2cnn(CCN3CCOCC3)c2)ncc1Cl.NC(=O)[C@H]1[C@@H]2CC[C@@H](C2)[C@H]1Nc1nc(Nc2cnn(CCN3CCOCC3)c2)ncc1Cl (mixture of isomers) [Example 60, (1R,2S,3R,4S)-3-[(5-chloro-2-{[1-(2-morpholin-4-ylethyl)-1H-pyrazol-4-yl]amino}pyrimidin-4-yl)amino]bicyclo[2.2.1]heptane-2-carboxamide and (1S,2R,3S,4R)-3-[(5-chloro-2-{[1-(2-morpholin-4-ylethyl)-1H-pyrazol-4-yl]amino}pyrimidin-4-yl)amino]bicyclo[2.2.1]heptane-2-carboxamide]
< 100 nM: all assays above

Cn1cc(Nc2ncc(C(F)(F)F)c(N[C@@H]3[C@H](C(=O)NCCO)[C@H]4C=C[C@@H]3C4)n2)cn1.Cn1cc(Nc2ncc(C(F)(F)F)c(N[C@H]3[C@@H](C(=O)NCCO)[C@@H]4C=C[C@H]3C4)n2)cn1 (mixture of isomers) [Example 67, (1S,2S,3R,4R)—N-(2-hydroxyethyl)-3-{[2-[(1-methyl-1H-pyrazol-4-yl)amino]-5-(trifluoromethyl)pyrimidin-4-yl]amino}bicyclo[2.2.1]hept-5-ene-2-carboxamide and (1R,2R,3S,4S)—N-(2-hydroxyethyl)-3-{[2-[(1-methyl-1H-pyrazol-4-yl)amino]-5-(trifluoromethyl)pyrimidin-4-yl]amino}bicyclo[2.2.1]hept-5-ene-2-carboxamide]
< 100 nM: all assays above

CCn1cc(Nc2ncc(C(F)(F)F)c(N[C@@H]3[C@H](C(=O)NCCO)[C@H]4C=C[C@@H]3C4)n2)cn1.CCn1cc(Nc2ncc(C(F)(F)F)c(N[C@H]3[C@@H](C(=O)NCCO)[C@@H]4C=C[C@H]3C4)n2)cn1 (mixture of isomers) [Example 68, (1S,2S,3R,4R)-3-{[2-[(1-ethyl-1H-pyrazol-4-yl)amino]-5-(trifluoromethyl)pyrimidin-4-yl]amino}-N-(2-hydroxyethyl)bicyclo[2.2.1]hept-5-ene-2-carboxamide and (1R,2R,3S,4S)-3-{[2-[(1-ethyl-1H-pyrazol-4-yl)amino]-5-(trifluoromethyl)pyrimidin-4-yl]amino}-N-(2-hydroxyethyl)bicyclo[2.2.1]hept-5-ene-2-carboxamide]
< 100 nM: all assays above

CCn1cc(Nc2ncc(C(F)(F)F)c(N[C@@H]3[C@H](C(=O)NC4CC4)[C@H]4C=C[C@@H]3C4)n2)cn1.CCn1cc(Nc2ncc(C(F)(F)F)c(N[C@H]3[C@@H](C(=O)NC4CC4)[C@@H]4C=C[C@H]3C4)n2)cn1 (mixture of isomers) [Example 71, (1S,2S,3R,4R)—N-cyclopropyl-3-{[2-[(1-ethyl-1H-pyrazol-4-yl)amino]-5-(trifluoromethyl)pyrimidin-4-yl]amino}bicyclo[2.2.1]hept-5-ene-2-carboxamide and (1R,2R,3S,4S)—N-cyclopropyl-3-{[2-[(1-ethyl-1H-pyrazol-4-yl)amino]-5-(trifluoromethyl)pyrimidin-4-yl]amino}bicyclo[2.2.1]hept-5-ene-2-carboxamide]
< 100 nM: all assays above
